Laboratory results: patent publication US6696470B2, “Pyridylthiophene compounds” (Pfizer Inc., priority 1997, dated 2004)

Row | SMILES | melting point
1 | O=S(=O)(c1cc(-c2ccncc2)sc1-c1ccncc1)N1CCCC1 [Example 25, 2,5-Di(4-pyridyl)-3-(pyrrolidine-1-sulfonyl)thiophene] | 193 to 195 °C
2 | CC(C)OC(=O)c1cc(-c2ccncc2)sc1-c1ccncc1 [Example 60, 3-(Isopropyloxycarbonyl)-2,5-di(4-pyridyl)thiophene] | 139 to 142 °C
3 | O=C1CCc2c(-c3ccncc3)sc(-c3ccncc3)c21 [Example 22, 1,3-Di(4-pyridyl)-5,6-dihydro-4H-cyclopenta(c)thiophen-4-one] | 168 to 170 °C
4 | COC(=O)c1cc(-c2ccncc2)sc1-c1ccncc1 [Example 23, 2,5-Di(4-pyridyl)-3-methoxycarbonylthiophene] | 133 to 135 °C
5 | O=C(c1ccccc1)c1cc(-c2ccncc2)sc1-c1ccncc1 [Example 33, 3-Benzoyl-2,5-di(4-pyridyl)thiophene] | 168 to 170 °C
6 | CN(C)C(=O)CCc1cc(-c2ccncc2)sc1-c1ccncc1 [Example 49, N,N-Dimethyl-3-[2,5-di-(4-pyridyl)3-thienyl]propionamide] | 166.5 to 167 °C
7 | CC(=O)c1cc(-c2ccncc2)sc1Oc1cc(F)ccc1F [Example 57, 3-Acetyl-2-(2,5-difluorophenoxy)-5-(4-pyridyl)thiophene] | 119 to 121 °C
8 | O=C1CCc2c(-c3ccncc3)sc(-c3ccc(C(F)(F)F)cc3)c21 [Example 66, 1-(4-Pyridyl)-3-(4-trifluoromethylphenyl)-5,6-dihydro-4H-cyclopenta(c)thiophene-4-one] | 158 to 160 °C
9 | Cc1c(-c2ccncc2)oc2c1C(=O)CCC2 [Example 2, 3-Methyl-4-oxo-2-(4-pyridyl)-4,5,6,7-tetrahydrobenzofuran] | 136 to 138 °C
10 | CC(=O)c1cc(-c2ccncc2)sc1Oc1ccccc1 [Example 42, 3-Acetyl-2-phenoxy-5-(4-pyridyl)thiophene] | 103 to 105 °C
11 | CC1(C)CCC(=O)c2c1oc(-c1ccncc1)c2-c1ccccc1 [Example 12, 7,7-Dimethyl-3-phenyl-4-oxo-2-(4-pyridyl)4,5,6,7-tetrahydrobenzofuran] | 156 to 157 °C
12 | Cc1c(-c2ccncc2)oc2c1C(=O)CCC2(C)C [Example 7, 4-Oxo-2-(4-pyridyl)-3,7,7-trimethyl-4,5,6,7-tetrahydrobenzofuran] | 138 to 140 °C
13 | O=C1CCCc2c(Cl)sc(-c3ccncc3)c21 [Example 45, 1-Chloro-3-(4-pyridyl)-4,5,6,7-tetrahydrobenzo(c)thiophen-4-one] | 93 to 95 °C
14 | CC(=O)c1cc(-c2ccncc2)sc1Oc1ccc(F)cc1 [Example 62, 3-Acetyl-2-(4-fluorophenoxy)-5-(4-pyridyl)thiophene] | 147 to 149 °C
15 | CCOC(=O)CCc1cc(-c2ccncc2)sc1-c1ccncc1.Cl.Cl | 205 to 208 °C (dec.)
16 | Cc1c(-c2ccncc2)oc2c1C(=O)C(C)(C)CC2 [Example 6, 4-Oxo-2-(4-pyridyl)-3,5,5-trimethyl-4,5,6,7-tetrahydrobenzofuran] | 133 to 134 °C
17 | N#Cc1cc(-c2ccncc2)sc1-c1ccncc1 [Example 29, 3-Cyano-2,5-di(4-pyridyl)thiophene] | 205 to 207 °C
18 | CCc1c(-c2ccncc2)oc2c1C(=O)CCC2(C)C [Example 11, 3-Ethyl-7,7-dimethyl-4-oxo-2-(4-pyridyl)-4,5,6,7-tetrahydrobenzofuran] | 86 to 88 °C

Row | SMILES | melting point
19 | CSc1sc(-c2ccncc2)c2c1C(=O)CCC2 [Example 47, 3-Methylthio-1-(4-pyridyl)-4,5,6,7-tetrahydrobenzo(c)thiophen-4-one] | 115 to 116 °C
20 | CC(=O)c1cc(-c2ccncc2)sc1N(C)Cc1ccccc1.Cl | 199 to 202 °C
21 | CC(=O)c1cc(-c2ccncc2)sc1Oc1cccc(Oc2ccc(F)cc2)c1.Cl | 251 to 253 °C
22 | NC(=O)c1cc(-c2ccncc2)sc1-c1ccncc1 [Example 59, 2,5-Di(4-pyridyl)-3-thiophenecarboxamide] | 240 to 242 °C
23 | CC(=O)c1cc(-c2ccncc2)sc1Oc1ccccc1F [Example 56, 3-Acetyl-2-(2-fluorophenoxy)-5-(4-pyridyl)thiophene] | 93 to 96 °C
24 | CC(=O)c1c(CC(C)C)oc(-c2ccncc2)c1C.Cl | 171 to 174 °C
25 | NC(=O)CCc1cc(-c2ccncc2)sc1-c1ccncc1 [Example 70, 3-[2,5-di-(4-pyridyl)3-thienyl]propionamide] | 196 to 196.5 °C
26 | CC(=O)c1cc(-c2ccncc2)sc1N1CCN(C)CC1 [Example 38, 3-Acetyl-2-(4-methylpiperazin-1-yl)-5-(4-pyridyl)thiophene] | 115 to 117 °C
27 | O=C1CCc2c(Cl)sc(-c3ccncc3)c21 [Example 54, 1-Chloro-3-(4-pyridyl)-5,6-dihydro-4H-cyclopenta(c)thiophene-4-one] | 163 to 165 °C
28 | O=C1CCc2c(-c3ccncc3)sc(-c3ccc(F)cc3)c21 [Example 58, 3-(4-Fluorophenyl)-1-(4-pyridyl)-5,6-dihydro-4H-cyclopenta(c)thiophene-4-one] | 193 to 195 °C
29 | O=C1CCc2c(-c3ccncc3)sc(-c3ccccc3F)c21 [Example 53, 3-(2-Fluorophenyl)-1-(4-pyridyl)-5,6-dihydro-4H-cyclopenta(c)thiophene-4-one] | 133 to 135 °C
30 | O=C1CCCc2c(-c3ccncc3)sc(-c3ccncc3)c21 [Example 41, 1,3-Di(4-pyridyl)-4,5,6,7-tetrahydrobenzo(c)thiophen-4-one] | 157 to 160 °C
31 | O=C1CCCc2sc(-c3ccncc3)cc21 [Example 16, 4-Oxo-2-(4-pyridyl)-4,5,6,7-tetrahydro-benzo(b)thiophene] | 156 to 158 °C
32 | CNC(=O)c1cc(-c2ccncc2)sc1-c1ccncc1 [Example 52, N-Methyl-{2,5-di(4-pyridyl)thiophen-3-yl}carboxamide] | 197 to 199 °C
33 | Cc1c(-c2ccncc2)oc2c1C(=O)OC(C)C2 (stereo not shown) [Example 10, 6,7-Dihydro-3,6-dimethyl-2-(4-pyridyl)-furo[3,2-c]pyran-4-one] | 157 to 160 °C
34 | O=C1CCc2c(-c3ccncc3)sc(-c3cccnc3)c21 [Example 63, 1-(4-Pyridyl)-3-(3-pyridyl)-5,6-dihydro-4H-cyclopenta(c)thiophene-4-one] | 214 to 216 °C
35 | Cc1c(-c2ccncc2)sc2c1C(=O)CCC2 [Example 20, 3-Methyl-4-oxo-2-(4-pyridyl)4,5,6,7-tetrahydrobenzothiophene] | 129 to 130 °C
36 | O=C1CCc2c(-c3ccc(F)cc3)sc(-c3ccncc3)c21 [Example 67, 1-(4-Fluorophenyl)-3-(4-pyridyl)-5,6-dihydro-4H-cyclopenta(c)thiophene-4-one] | 155 to 157 °C

The next lines start with the values.

Row | melting point | SMILES
37 | 117 to 118 °C | CC(=O)c1sc(-c2ccncc2)c(C)c1-c1ccncc1 [Example 13, 2-Acetyl-4-methyl-3,5-di(4-pyridyl)thiophene]
38 | 148 to 148.5 °C | Cc1c(-c2ccncc2)sc(-c2ccncc2)c1CF [Example 65, 2,5-Di(4-pyridyl)-3-fluoromethyl-4-methylthiophene]
39 | 60 to 61 °C | CC(=O)c1c(-c2ccncc2)sc(Cl)c1C [Example 17, 3-Acetyl-5-chloro-4-methyl-2-(4-pyridyl)thiophene]
40 | 80 to 81 °C | CC(=O)c1c(C)sc(-c2ccncc2)c1C [Example 18, 3-Acetyl-2,4-dimethyl-5-(4-pyridyl)thiophene]
41 | 140 to 142 °C | CC(=O)c1sc(-c2ccncc2)c(-c2ccncc2)c1C [Example 14, 2-Acetyl-3-methyl-4,5-di(4-pyridyl)thiophene]
42 | 111 to 112 °C | CC(=O)c1c(-c2ccccc2)sc(-c2ccncc2)c1C [Example 19, 3-Acetyl-4-methyl-2-phenyl-5-(4-pyridyl)thiophene]
43 | 65 to 66.5 °C | CC(=O)c1c(C)oc(-c2ccncc2)c1C [Example 1, 3-Acetyl-2,4-dimethyl-5-(4-pyridyl)furan]
44 | 155 to 157 °C | Cc1c(-c2ccncc2)sc(-c2ccncc2)c1C(C)O (stereo not shown) [Example 21, 2,5-Di(4-pyridyl)-3-(1-hydroxyethyl)-4-methylthiophene]
45 | 171 to 173 °C | CC(=O)c1sc2sc(-c3ccncc3)c(C)c2c1C [Example 43, 2-Acetyl-3,4-dimethyl-5-(4-pyridyl)thieno[2,3-b]thiophene]
46 | 219 to 222 °C (dec.) | Cc1c(-c2ccncc2)sc(-c2ccncc2)c1CNO.Cl.Cl.Cl
47 | 139 to 139.5 °C | Cc1c(-c2ccncc2)sc(-c2ccncc2)c1C=O [Example 34, 2,5-Di(4-pyridyl)-4-methylthiophene-3-carbaldehyde]
48 | 108 to 110 °C | CC(=O)c1c(-c2ccccc2)oc(-c2ccncc2)c1C [Example 3, 3-Acetyl-4-methyl-2-phenyl-5-(4-pyridyl)furan]
49 | 98 to 100 °C | CC(=O)c1c(-c2ccsc2)sc(-c2ccncc2)c1C [Example 35, 3-Acetyl-4-methyl-5-(4-pyridyl)-2-(3-thienyl)thiophene]
50 | 106 to 108 °C | CSc1ccc(-c2sc(-c3ccncc3)c(C)c2C(C)=O)cc1 [Example 36, 3-Acetyl-4-methyl-5-(4-pyridyl)-2-(4-methylthiophenyl)thiophene]
51 | 137 to 138 °C | CC(=O)c1c(-c2ccncc2)sc(-c2ccncc2)c1C [Example 15, 3-Acetyl-4-methyl-2,5-di(4-pyridyl)thiophene]
52 | 116 to 118 °C | CC(=O)c1c(-c2ccc(F)cc2)sc(-c2ccncc2)c1C [Example 32, 3-Acetyl-2-(4-fluorophenyl)-4-methyl-5-(4-pyridyl)thiophene]
53 | 258 to 261 °C (dec.) | Cc1c(-c2ccncc2)sc(-c2ccncc2)c1C=NO.Cl.Cl
54 | 87 to 87.5 °C | CC(=O)c1csc(-c2ccncc2)c1C [Example 27, 4-Acetyl-3-methyl-2-(4-pyridyl)thiophene]
55 | 117 to 119 °C | CC(=O)c1cc(-c2ccncc2)sc1-c1ccncc1 [Example 24, 3-Acetyl-2,5-di(4-pyridyl)thiophene]
